These results are taken from publication PMC7515946, “Targeting of Perforin Inhibitor into the Brain Parenchyma Via a Prodrug Approach Can Decrease Oxidative Stress and Neuroinflammation and Improve Cell Survival” (Molecular Neurobiology, 2020).

Where two headings read alike, the source gives them in different places.

Usually Km stands for the substrate concentration at which the rate is half of its maximum.

On the set-up of series [1]: method as in PMID 27266990. The note with it: cited from earlier work.
For a further series, the system named is mouse primary astrocytes. The series can be described thus: Transporter-mediated cellular uptake into primary astrocytes. The note with it: for Vmax of cellular uptake (maximum transport capacity): 1–200 μM, 30 min. In kind it is in vitro ADME. As to the method:
(§1) For the cell uptake experiments, the astrocytes were seeded on 24-well plates with a density of 10 × 10^4 cells/well 3 days before the experiments. […]; Agilent Technologies, Santa Clara, CA). […] The concentrations of each compound in cell lysates were calculated from the standard curve that was prepared by spiking known amounts of compounds to ACN including the selected internal standard and normalized with protein concentration. The protein concentrations on each plate were determined as a mean of three samples by Bio-Rad Protein Assay, based on the Bradford dye-binding method, using bovine serum albumin (BSA) as a standard protein and measuring the absorbance (595 nm) by a multiplate reader (EnVision, Perkin Elmer, Inc., Waltham, MA, USA).

Assay in series [2]: as above
It is filed as in vitro ADME. To be noted: C57BL/6JOlaHsd, mouse. The procedure:
as §1

Series [3] can be described thus: Intracellular unbound concentrations in astrocytes (RED dialysis, Kp,uu,cell). In kind it is in vitro ADME. To be noted: mouse; for fraction unbound at 4 h, 100 μM: astrocyte homogenate, RED, 37 °C, read-out: fu,cell (unbound fraction). As to the method: The non-specific binding of compounds (100 μM) was determined in astrocyte homogenate by using the Rapid Equilibrium Dialysis (RED) device (Thermo Fisher Scientific, Inc., Waltham, MA, USA). Briefly, the astrocyte cell suspension (10 × 10^6 cells/mL) was homogenized with HBSS by the SoniPerp 150 Plus disintegrator (MSE Ltd., London, UK) (2 s × 3). The studied compound was mixed with 100 μL of cell homogenate and added to the reaction chamber. A 350-μL HBSS buffer was added to the buffer chamber. The dialysis plate was incubated at 37 °C for 4 h with shaking. Fifty microliters of samples were taken from the reaction and buffer chambers and equal size of the buffer or blank homogenate were added, respectively, to yield identical matrices. The proteins were precipitated by adding 100 μL of ice-cold ACN (including the selected internal standard; see above), and the supernatants were collected for LC-MS analysis (see above) after centrifugation at 12,000 × g for 10 min. The unbound drug fraction (fu,cell) was calculated by dividing concentration in the buffer chamber by concentration in the reaction chamber and taking into account the effect of homogenate dilution factor (D = 45 for 10 × 10^6 cells/mL cell suspension according to their weight of the cells) as described earlier.
The compound concentration ratios in astrocytes (Kp) was determined at 0.01–1.0 μM concentrations by comparing the cellular uptake amount (nmol) in cell lysates (0.1 M NaOH) per astrocyte cell volume (0.05810^−15 L/cell for 10 × 10^4 cells/well) to the concentrations (nM) detected from the surrounding buffer (HBSS) collected before cell lysing as described previously. The unbound drug concentration ratio (Kp,uu) was then calculated by multiplying the drug concentration ratio (Kp) by unbound drug fraction (fu,cell).

In a further series the test system is caspase-3/-7. Put plainly: Caspase-3/-7 in brain of LPS-induced neuroinflammation mice. In kind it is in vivo, mouse. The note with it: for Brain caspase-3/-7 amounts, preventative treatment: 30 μmol/kg for 4 days together with LPS 250 μg/kg for 3 days; for Brain caspase-3/-7 amounts, preventative treatment / Brain caspase-3/-7 amounts, curative treatment: relative to control; for Brain caspase-3/-7 amounts, curative treatment: 30 μmol/kg on days 3 and 4, LPS 250 μg/kg for 3 days. As to the method:
Adult male C57BL/6JOlaHsd mice (Jackson Laboratories, Bar Harbor, ME, USA) were supplied by Envigo (Venray, Netherlands). Mice were housed in stainless steel cages on a 12-h light (07:00–19:00) and 12-h dark (19:00–07:00) cycle at an ambient temperature of 22 ± 1 °C with a relative humidity of 50–60%. All experiments were carried out during the light phase. Tap water and food pellets (Lactamin R36; Lactamin AB, Södertälje, Sweden) were available ad libitum. Neuroinflammation was induced by the treatment with LPS 250 μg/kg i.p once per day for 3 consequent days followed by decapitation on the 4th day. The animals were allocated to one of four treatment groups (n = 6 per group): (1) LPS-treated mice, (2) mice treated with LPS and the studied compound (30 μmol/kg; i.v.) for 3 days and 120 min before the decapitation on the 4th day (preventative efficacy), (3) mice treated with LPS for 3 days and with the studied compound (30 μmol/kg; i.v.) only for the last 2 days, and (4) control mice treated with 0.9% NaCl solution i.p. once per day for 3 days. After decapitation, mouse blood and brain samples were collected. […] The plasma layer was centrifuged again at 12,000 × g to remove the platelets. Plasma was stored at − 80 °C until analysis. The brains were snap-frozen in liquid nitrogen and stored at − 80 °C until analysis.
The effects of the compounds on the enzyme activity of caspase-3 and caspase-7 were evaluated from the snap-frozen mouse brain. Pieces of tissues (n = 3) were homogenized in 50 mM Tris–HCl (pH 7.4) 1:10 (w/v) with a bead mill homogenizer. […] The enzyme activity was measured with an Apo-ONE Homogenous Caspase-3/7 Assay kit (Promega Corporation, Madison, WI, USA) according to the manufacturer’s instruction. The assay was performed on 96-well plates, each sample having 3 replicates. Each of the sample wells contained 100 μL of the previously collected supernatant and 100 μL of the prepared Apo-ONE reagent. The blank measurement was carried out with the homogenization buffer and Apo-ONE reagent. Once all the samples and reagents were pipetted in the wells, the plate was carefully shaken for 30 s and left for incubation in dark at room temperature. The fluorescence was measured after the incubation with an EnVision 2104 Multilabel Reader (PerkinElmer, Waltham, MA, USA), with λex 499 nm and λem 521 nm. The measurement was repeated on multiple time points between 0.5 and 24 h.

Where [4] appears, read: 1–200 μM, 30 min, read-out: Km of cellular uptake.

Turning to `N[C@H](Cc1cccc(C(=O)OCc2ccc(-c3ccc(-c4ccc5c(c4)COC5=O)s3)cc2)c1)C(=O)O` [PFI-PD], in series [1] (dose 23 μmol/kg), the “Brain Cmax” value is listed as 0.12 nmol/g of tissue and the “Unbound brain Cmax,u” value is listed as 0.002 nmol/g of tissue. Further, the “Vmax of cellular uptake (maximum transport capacity)” value in the series on mouse primary astrocytes was 54 ± 7 nmol/min/mg protein. The Michaelis-Menten constant (Km) at 30 min in series [2] (setting [4]) was found to be 720 µM. The Kp uu at 50 nM in series [3] (primary astrocytes, astrocytes, 50 nM concentration, read-out: Kp,uu,cell (unbound drug accumulation ratio)) came to 2.01 ± 0.91. Besides, the fraction unbound at 4 h, 100 μM in series [3] turned out to be 7e-05 ± 4e-05. In the series with caspase-3/-7, the “Brain caspase-3/-7 amounts, preventative treatment” value came out at 68% and the “Brain caspase-3/-7 amounts, curative treatment” value came to 63%. The “Brain caspase-3/-7 levels after prodrug treatment” value with caspase-3/-7 (LPS-induced mice, LPS level given as 117%) is listed as 72–74%. The “Reduction of brain caspase-3/-7 levels” value in the series on caspase-3/-7 (as stated in the discussion (from 117 to 72–74%)) was “over 40%”.
On to `O=C1OCc2cc(-c3ccc(-c4ccc(CO)cc4)s3)ccc21` [PFI], for which, in series [1] (after PFI-PD 23 μmol/kg), the “Amount of released PFI in the brain after the prodrug treatment” value is 0.01 nmol/g of tissue. In addition, in series [1] (dose 23 μmol/kg, LC-MS/MS), the “Brain levels of PFI after PFI dosing” value is on record as “below the detection limit”. Further, the “Vmax of cellular uptake (maximum transport capacity)” value in the series with mouse primary astrocytes amounted to 1.4 ± 0.4 nmol/min/mg protein. The “Vmax of cellular uptake, Eadie-Hofstee, first transport mechanism” value with mouse primary astrocytes (mechanism with Km 8.3 μM) was found to be 0.036 ± 0.007 nmol/min/mg protein. In addition, the “Vmax of cellular uptake, Eadie-Hofstee, second transport mechanism” value with mouse primary astrocytes (mechanism with Km 680 μM) turned out to be 2.53 ± 0.17 nmol/min/mg protein. The Km at 30 min in series [2] (setting [4]) stood at 98 µM; in series [2] (read-out: Km of cellular uptake, Eadie-Hofstee, first transport mechanism), 8.3 µM; in series [2] (read-out: Km of cellular uptake, Eadie-Hofstee, second transport mechanism), 680 µM. Besides, the fraction unbound at 4 h, 100 μM in series [3] came out at 0.0053 ± 0.0001. The “Brain caspase-3/-7 amounts, preventative treatment” value in the series on caspase-3/-7 came out at 156%. Also, the “Brain caspase-3/-7 amounts, curative treatment” value with caspase-3/-7 worked out at 105%.
